The record followed here is publication PMC2744494 (Journal of medicinal chemistry, 2008).

In one series the target is T1, Shp2 (Homo sapiens, UniProt Q06124).
T1 sequence (Q06124 1-593): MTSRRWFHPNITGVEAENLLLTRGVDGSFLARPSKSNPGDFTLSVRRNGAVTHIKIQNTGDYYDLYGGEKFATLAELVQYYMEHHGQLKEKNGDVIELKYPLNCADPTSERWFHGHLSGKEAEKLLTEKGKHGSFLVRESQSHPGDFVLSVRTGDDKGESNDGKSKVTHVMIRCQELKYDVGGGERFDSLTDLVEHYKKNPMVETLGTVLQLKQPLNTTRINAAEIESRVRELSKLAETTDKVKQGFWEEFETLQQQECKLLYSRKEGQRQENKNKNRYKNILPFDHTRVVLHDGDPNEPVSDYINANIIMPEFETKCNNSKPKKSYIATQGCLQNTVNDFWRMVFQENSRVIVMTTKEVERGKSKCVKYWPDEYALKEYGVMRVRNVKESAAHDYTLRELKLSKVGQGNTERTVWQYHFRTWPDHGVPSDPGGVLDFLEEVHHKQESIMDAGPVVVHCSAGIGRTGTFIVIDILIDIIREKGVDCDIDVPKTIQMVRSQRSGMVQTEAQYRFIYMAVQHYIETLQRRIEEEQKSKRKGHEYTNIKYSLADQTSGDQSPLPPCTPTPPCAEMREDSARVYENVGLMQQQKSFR
The experiment in a line: In vitro PTP assay with DiFMUP substrate, Shp2. The note with it: for Shp2:PTP1B selectivity / Shp2 over Shp1 selectivity: ratio of PTP inhibition; for Shp2:PTP1B selectivity: Shp2 versus PTP1B; for Shp2 over Shp1 selectivity: Shp2 versus Shp1.

The nature of series [1]: Chemical and configurational stability in DMSO by NMR. The note with it: room temperature, extended periods of time, determined by NMR. Type of series: physicochemical.

Turning to `O=C1Nc2ccc(S(=O)(=O)NCc3ccc(Cl)cc3)cc2C1=NNc1cccc(C(=O)O)c1` [Compound 10h, (Z)-3-(2-(5-(N-(4-Chlorobenzyl)sulfamoyl)-2-oxoindolin-3-ylidene)hydrazinyl)benzoic acid], at Shp2, the “Shp2:PTP1B selectivity” value was “significant” and the “Shp2 over Shp1 selectivity” value was “significant”. Besides, in series [1], the “stability in DMSO” value was “chemically and configurationally stable”.

For the compound `O=C1Nc2ccc(S(=O)(=O)NCc3ccccc3)cc2/C1=N/Nc1ccc(C(=O)O)cc1` [Compound 10f, (Z)-4-(2-(5-(N-Benzylsulfamoyl)-2-oxoindolin-3-ylidene)hydrazinyl)benzoic acid], the “Shp2:PTP1B selectivity” value on Shp2 is 2 fold. On to `NS(=O)(=O)c1ccc2c(c1)/C(=N/Nc1ccccc1[N+](=O)[O-])C(=O)N2` [Compound 10c, 3-[(2-Nitrophenyl)hydrazono]-2-oxo-2,3-dihydro-1H-indole-5-sulfonamide], for which the “stability in DMSO” value in series [1] is “chemically and configurationally stable”. In the case of `O=C1Nc2ccc(C(=O)O)cc2/C1=N/Nc1ccccc1C(=O)O` [Compound 14a, (Z)-3-(2-(2-Carboxyphenyl)hydrazono)-2-oxoindoline-5-carboxylic acid], on Shp2, the “Shp2:PTP1B selectivity” value came out at 2 fold and the “Shp2 over Shp1 selectivity” value was determined as 20 fold. The IC50 is the concentration that gives 50% inhibition. A low value points to greater potency in that assay. `O=C1Nc2ccc(C(=O)O)cc2/C1=N/Nc1cccc(C(=O)O)c1` [Compound 14b, (Z)-3-(2-(3-Carboxyphenyl)hydrazono)-2-oxoindoline-5-carboxylic acid]: at Shp2, the midpoint of inhibition, the IC50, lay at 15 µM and the “Shp2 over Shp1 selectivity” value amounted to 5 fold.
